Laboratory results from ChEMBL document CHEMBL1201862, “PubChem BioAssay data set” (2004).
Activity calls are given as the source filed them.

Columns and labels:
[1] = target: DNA dC->dU-editing enzyme APOBEC-3A (Homo sapiens, UniProt P31941); test: Dose Response confirmation of small molecule APOBEC3A DNA Deaminase Inhibitors via a fluorescence-based single-stranded DNA deaminase assay. [Related pubchem assays (depositor defined):AID493011, AID493024]; type: functional
[2] = target: DNA dC->dU-editing enzyme APOBEC-3G (Homo sapiens, UniProt Q9HC16); type: functional;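 also: Dose-response counterscreen measuring inhibition of APOBEC3G DNA deaminase activity, run while confirming APOBEC3A inhibitors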
Beta-galactosidase = Beta-galactosidase (Escherichia coli, UniProt Q8VNN2); test: Dose response counterscreen for EBI2 assay utilizing the enzyme, b-galactosidase.; type: functional
[3] = Trypanosoma cruzi growth suppression in host cells – NIH3T3 host cells, beta-gal luminescence, confirmation (AID 2044); type: functional, cell-based;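 also: intracellular parasites grown in NIH/3T3 mouse fibroblasts as host cells; luminescent beta-galactosidase reporter signal from transgenic T. cruzi replicating inside host cells; inhibitors lower the luminescence signal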
[4] = NIH3T3 cell viability loss – ATP luminescence, mouse fibroblasts, counter-screen, dose response (AID 2010); type: functional, cell-based;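 also: cells exposed to compound for about 90 hours before reading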
INS1 = test: INS-1E survival protection against cytokine death – cell-based, luminescence, retest, dose response (AID 449756); type: functional; conditions: Rattus norvegicus;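 also: cell death triggered by IL-1 beta plus TNF-alpha plus IFN-gamma mixture; protective hits raise ATP signal compared with cytokine alone wells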
[5] = target: T1, DNA repair protein RAD52 homolog (Homo sapiens, UniProt P43351); type: functional, biochemical
T1 sequence (P43351 whole entry): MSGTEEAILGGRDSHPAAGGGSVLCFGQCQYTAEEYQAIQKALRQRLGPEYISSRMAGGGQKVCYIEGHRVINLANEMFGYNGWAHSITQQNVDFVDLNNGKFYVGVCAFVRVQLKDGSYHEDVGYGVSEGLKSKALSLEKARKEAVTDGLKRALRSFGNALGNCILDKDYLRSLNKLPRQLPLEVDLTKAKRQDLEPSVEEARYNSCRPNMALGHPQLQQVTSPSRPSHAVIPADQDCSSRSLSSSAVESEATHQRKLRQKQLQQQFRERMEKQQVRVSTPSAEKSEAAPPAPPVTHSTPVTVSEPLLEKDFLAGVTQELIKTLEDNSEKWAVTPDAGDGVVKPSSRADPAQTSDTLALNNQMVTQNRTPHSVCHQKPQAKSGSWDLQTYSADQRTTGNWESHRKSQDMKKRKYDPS

Tumor necrosis factor = Tumor necrosis factor (Homo sapiens, UniProt P01375); test: analog potency on TNFa NF-kB signaling – cell-based, revised, SAR follow-up (AID 2337); type: functional
[6] = target: T2, Nucleotide-binding oligomerization domain-containing protein 1 (Homo sapiens, UniProt Q9Y239); test: blockers of NOD1 pathway activity – revised, SAR follow-up (AID 2333); type: functional
T2 sequence (Q9Y239 whole entry): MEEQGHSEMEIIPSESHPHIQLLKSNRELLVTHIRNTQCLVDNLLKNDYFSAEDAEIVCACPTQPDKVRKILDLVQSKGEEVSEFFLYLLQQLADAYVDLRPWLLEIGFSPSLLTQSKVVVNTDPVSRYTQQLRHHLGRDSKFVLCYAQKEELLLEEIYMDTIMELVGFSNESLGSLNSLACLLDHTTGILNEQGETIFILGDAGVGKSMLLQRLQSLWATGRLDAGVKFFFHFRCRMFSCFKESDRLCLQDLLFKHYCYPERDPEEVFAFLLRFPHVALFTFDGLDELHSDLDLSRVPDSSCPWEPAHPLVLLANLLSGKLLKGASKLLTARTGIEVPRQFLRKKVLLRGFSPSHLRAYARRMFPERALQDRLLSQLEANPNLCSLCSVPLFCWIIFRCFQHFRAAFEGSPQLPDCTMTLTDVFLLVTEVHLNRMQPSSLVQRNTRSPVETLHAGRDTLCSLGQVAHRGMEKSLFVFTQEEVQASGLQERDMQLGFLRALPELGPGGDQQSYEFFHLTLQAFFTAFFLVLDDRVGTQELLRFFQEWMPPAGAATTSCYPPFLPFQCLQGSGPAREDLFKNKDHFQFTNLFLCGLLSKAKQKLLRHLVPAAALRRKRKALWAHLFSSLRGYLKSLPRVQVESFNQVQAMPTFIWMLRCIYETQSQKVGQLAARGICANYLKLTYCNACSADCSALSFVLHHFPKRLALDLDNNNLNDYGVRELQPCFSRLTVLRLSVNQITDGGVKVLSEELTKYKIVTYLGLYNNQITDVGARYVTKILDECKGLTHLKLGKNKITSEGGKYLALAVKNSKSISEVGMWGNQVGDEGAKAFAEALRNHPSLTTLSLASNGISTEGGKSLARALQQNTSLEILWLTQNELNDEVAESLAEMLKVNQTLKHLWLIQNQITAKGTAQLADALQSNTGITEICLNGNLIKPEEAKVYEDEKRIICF

[7] = HEK-293T viability loss after treatment – luminescence, T-cell screen hits, cytotoxicity control for TCR NF-kB inhibitor project, dose response (AID 489026); type: functional, cell-based;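 also: cells exposed to compound about 14 hours before the viability readout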
HEK293 = test: cells; conditions: Homo sapiens;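 also: cells exposed to compound for 14 hours overnight before viability readout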
Protein skinhead-1 = target: T3, Protein skinhead-1 (Caenorhabditis elegans, UniProt P34707); type: functional
T3 sequence (P34707 whole entry): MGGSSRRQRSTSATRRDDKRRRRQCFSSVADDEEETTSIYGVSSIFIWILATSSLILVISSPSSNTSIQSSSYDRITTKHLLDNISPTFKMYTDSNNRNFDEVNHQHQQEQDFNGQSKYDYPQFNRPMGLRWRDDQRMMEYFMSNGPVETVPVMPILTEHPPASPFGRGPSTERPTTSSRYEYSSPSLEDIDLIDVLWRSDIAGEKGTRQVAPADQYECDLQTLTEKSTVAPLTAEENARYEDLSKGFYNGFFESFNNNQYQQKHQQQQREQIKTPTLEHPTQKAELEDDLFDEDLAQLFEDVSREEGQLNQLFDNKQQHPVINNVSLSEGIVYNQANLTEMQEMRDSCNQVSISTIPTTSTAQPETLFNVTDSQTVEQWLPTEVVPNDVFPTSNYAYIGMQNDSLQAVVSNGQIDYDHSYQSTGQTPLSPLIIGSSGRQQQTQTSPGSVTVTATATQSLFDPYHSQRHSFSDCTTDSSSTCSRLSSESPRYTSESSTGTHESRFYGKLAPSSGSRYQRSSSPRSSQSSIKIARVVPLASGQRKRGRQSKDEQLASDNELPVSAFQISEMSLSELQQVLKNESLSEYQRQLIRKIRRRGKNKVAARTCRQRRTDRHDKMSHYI

[8] = target: T4, Corticotropin-releasing factor receptor 2/Corticotropin-releasing factor-binding protein (Homo sapiens, UniProt P24387+Q13324); test: Dose Response confirmation of uHTS hits for small molecule antagonists of the CRF-binding protein and CRF-R2 receptor complex.; type: functional; conditions: read-out: IC50_Mean
T4 sequence (Q13324 whole entry): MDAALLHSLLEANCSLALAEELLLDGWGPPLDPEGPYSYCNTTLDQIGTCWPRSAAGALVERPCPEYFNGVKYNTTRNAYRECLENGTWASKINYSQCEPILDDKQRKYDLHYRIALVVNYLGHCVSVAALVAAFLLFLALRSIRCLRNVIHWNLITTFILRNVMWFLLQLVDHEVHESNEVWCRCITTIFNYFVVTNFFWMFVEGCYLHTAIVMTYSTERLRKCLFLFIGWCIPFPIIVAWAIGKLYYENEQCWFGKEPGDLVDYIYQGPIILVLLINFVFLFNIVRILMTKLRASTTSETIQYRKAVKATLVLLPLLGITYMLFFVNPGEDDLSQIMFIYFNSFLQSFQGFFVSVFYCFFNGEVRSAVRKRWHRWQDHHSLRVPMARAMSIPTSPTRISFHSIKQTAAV
T4 sequence (P24387 whole entry): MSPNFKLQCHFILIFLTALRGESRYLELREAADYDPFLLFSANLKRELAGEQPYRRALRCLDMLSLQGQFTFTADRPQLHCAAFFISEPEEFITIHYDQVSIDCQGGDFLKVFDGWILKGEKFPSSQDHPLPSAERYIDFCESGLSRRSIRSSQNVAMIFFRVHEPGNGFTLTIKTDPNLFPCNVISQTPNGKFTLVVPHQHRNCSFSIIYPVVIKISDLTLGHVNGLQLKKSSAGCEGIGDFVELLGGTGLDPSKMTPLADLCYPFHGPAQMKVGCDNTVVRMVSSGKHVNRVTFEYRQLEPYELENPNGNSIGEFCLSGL

[9] = target: T4, Corticotropin-releasing factor receptor 2/Corticotropin-releasing factor-binding protein; test: activators of CRF receptor 2 with binding protein – uHTS hits, confirmation (AID 602473); type: functional; conditions: read-out: EC50_Mean
[10] = A549 cell cytotoxicity, dose response, cytotoxicity control, plate reader, cherry-pick, antagonist series (AID 743412); type: functional, cell-based
[11] = toxicity toward HepG2 liver cells – cell-based, plate reader, cherry-pick, antagonist series, cytotoxicity control, dose response (AID 743416); type: functional

Chain of DNA dC->dU-editing enzyme APOBEC-3G (Q9HC16 whole entry): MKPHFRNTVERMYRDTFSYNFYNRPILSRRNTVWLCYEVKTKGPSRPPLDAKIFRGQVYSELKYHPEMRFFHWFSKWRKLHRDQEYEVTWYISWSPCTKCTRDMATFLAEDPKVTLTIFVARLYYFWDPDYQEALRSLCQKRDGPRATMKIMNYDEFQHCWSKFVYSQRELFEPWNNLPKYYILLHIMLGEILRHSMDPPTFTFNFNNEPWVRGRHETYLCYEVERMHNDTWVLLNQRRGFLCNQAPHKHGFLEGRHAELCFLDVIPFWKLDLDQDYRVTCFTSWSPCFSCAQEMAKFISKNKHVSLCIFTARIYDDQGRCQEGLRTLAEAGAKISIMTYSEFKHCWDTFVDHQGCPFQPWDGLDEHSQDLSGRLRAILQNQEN
Chain of Beta-galactosidase (Q8VNN2 whole entry): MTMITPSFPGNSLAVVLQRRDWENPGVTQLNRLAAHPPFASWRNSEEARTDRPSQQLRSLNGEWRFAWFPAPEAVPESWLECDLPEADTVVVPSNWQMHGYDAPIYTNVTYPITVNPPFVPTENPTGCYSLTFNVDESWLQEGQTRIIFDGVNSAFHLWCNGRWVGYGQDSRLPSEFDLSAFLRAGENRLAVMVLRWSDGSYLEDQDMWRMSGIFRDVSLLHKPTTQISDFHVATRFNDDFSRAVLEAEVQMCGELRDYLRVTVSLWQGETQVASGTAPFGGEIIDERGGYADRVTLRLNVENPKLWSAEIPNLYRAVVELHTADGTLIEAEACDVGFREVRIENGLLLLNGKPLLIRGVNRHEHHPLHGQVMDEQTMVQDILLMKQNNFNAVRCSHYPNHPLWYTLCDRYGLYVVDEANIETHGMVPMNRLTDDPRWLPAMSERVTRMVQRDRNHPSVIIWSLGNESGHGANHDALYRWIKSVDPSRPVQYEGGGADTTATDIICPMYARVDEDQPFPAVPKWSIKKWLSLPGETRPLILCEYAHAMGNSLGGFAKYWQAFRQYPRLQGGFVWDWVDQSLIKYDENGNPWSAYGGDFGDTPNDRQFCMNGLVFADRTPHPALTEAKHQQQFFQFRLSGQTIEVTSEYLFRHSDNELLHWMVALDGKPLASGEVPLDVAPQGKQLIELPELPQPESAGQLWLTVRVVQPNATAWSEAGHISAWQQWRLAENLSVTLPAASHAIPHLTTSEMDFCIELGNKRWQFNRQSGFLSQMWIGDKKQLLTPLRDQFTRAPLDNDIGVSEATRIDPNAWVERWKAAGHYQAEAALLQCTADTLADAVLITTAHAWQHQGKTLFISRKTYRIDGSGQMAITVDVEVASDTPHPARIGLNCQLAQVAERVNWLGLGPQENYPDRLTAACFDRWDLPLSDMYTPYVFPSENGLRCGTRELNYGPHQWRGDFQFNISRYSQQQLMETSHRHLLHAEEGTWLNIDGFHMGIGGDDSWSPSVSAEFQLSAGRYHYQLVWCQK
Chain of DNA dC->dU-editing enzyme APOBEC-3A (P31941 whole entry): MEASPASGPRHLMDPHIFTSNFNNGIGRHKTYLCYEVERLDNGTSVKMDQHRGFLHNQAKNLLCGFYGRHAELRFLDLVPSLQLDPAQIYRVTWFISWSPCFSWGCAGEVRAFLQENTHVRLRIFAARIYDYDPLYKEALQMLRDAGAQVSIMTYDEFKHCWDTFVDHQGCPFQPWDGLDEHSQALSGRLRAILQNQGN
Chain of Tumor necrosis factor (P01375 whole entry, the tested form may be a part): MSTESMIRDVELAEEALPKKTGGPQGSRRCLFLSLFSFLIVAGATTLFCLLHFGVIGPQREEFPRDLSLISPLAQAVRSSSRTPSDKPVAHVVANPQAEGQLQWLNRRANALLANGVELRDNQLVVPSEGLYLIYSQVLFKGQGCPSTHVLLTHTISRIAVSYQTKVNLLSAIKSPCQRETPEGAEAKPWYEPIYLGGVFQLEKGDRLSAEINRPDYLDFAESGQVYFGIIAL

| IC50 (Beta-galactosidase) | SMILES | IC50 [1] | IC50 [2] | further results |
| --- | --- | --- | --- | --- |
|  | CN(Cc1ccccc1)C(=O)c1ncn(C)c1C(=O)N(C)Cc1ccccc1 | 3.15 µM (active) | > 100 µM (inactive) |  |
| > 80 µM (inactive) | Cc1sc2nc(C3CC3)nc(N3CCN(C(=O)c4ccc(Cl)cc4)CC3)c2c1C |  |  |  |
|  | CC1(C)CC(N2CCN(c3ccccc3)CC2)=CC(=[N+]2CCCC2)C1 | 2.15 µM (active) | 2.24 µM (active) | EC50 [3]: 263 nM (active); EC50 [4]: > 60 µM (not active); AC50 (INS1): 1.81 µM (active) |
|  | Cn1c(C(=O)NCCCN2CCCCCC2)cc2c(=O)n(C)c3ccccc3c21 |  |  | AC50 [5]: 12.4 µM (active) |
|  | CC(=O)c1ccc(N2CCN(S(=O)(=O)c3ccc4c(c3)CC(C)N4C(=O)C3CC3)CC2)cc1 (stereo unspecified) |  |  | IC50 (Tumor necrosis factor): 3.18 µM (active); IC50 [6]: 8.77 µM (active); IC50 [7]: > 80 µM (inactive); IC50 (HEK293): > 20 µM (inactive) |
|  | COc1ccc2[nH]c(=O)c(CN(C(=O)c3ccco3)C(C)C)cc2c1 | 6.26 µM (active) | 6.32 µM (active) |  |
|  | Cc1ccc(/C=C2/SC(Nc3ccc(F)cc3)=NC2=O)s1 | 3.22 µM (active) | 7.58 µM (active) | IC50 (Protein skinhead-1): > 100 µM (inactive) |
|  | CCN1C(NCCOC)=N[C@@H](c2ccccc2)[C@H](C(=O)OC)[C@H]1C | 4.47 µM (active) | 4.28 µM (active) |  |
| > 80 µM (inactive) | CCOC(=O)N1CCN(C(=O)c2cc3c(O)nc4ccccc4c3s2)CC1 |  |  |  |
| > 80 µM (inactive) | CCc1ccc(CN(C)C(=O)c2cc(=O)c3ccccc3o2)cc1 |  |  |  |
| > 80 µM (inactive) | O=C(COc1ccc2ccccc2c1)N1CCN(C(=O)c2ccc([N+](=O)[O-])cc2)CC1 |  |  | IC50 [8]: > 47.1 µM (inactive); EC50 [9]: > 53 µM (inactive) |
|  | CC(=O)Nc1ccc(CNc2nc(NCCN(C)C)nc3cc(-c4ccccc4)sc23)cc1 |  |  | AC50 [5]: 1.37 µM (active) |
|  | Cc1ccc(NC(=O)c2ncn(CC(=O)N3CCN(c4ccccn4)CC3)n2)cc1C |  |  | AC50 [10]: > 52 µM (inactive); AC50 [11]: > 52 µM (inactive) |
| 121 µM (inactive) | CCOC(=O)N(C)c1c(CC)nc2c(OCc3ccc(Cl)cc3Cl)cccn12 |  |  |  |
|  | CC(=O)Nc1ccc(Nc2cc(C)nc(Nc3ccc(NC(C)=O)cc3)n2)cc1 | 11 µM (active) | 16.4 µM (active) |  |
